Assay results: ChEMBL document CHEMBL3885881, “DrugMatrix”

Species on record: Rattus norvegicus
Assay: DrugMatrix - Regimen: Daily Repeat
Assay type: toxicity, organism-based, Sprague-Dawley
Design: regimen Daily Repeat, gender Male, age 6-8 weeks
Conditions: in vivo, po, route oral GAVAGE, vehicle 100 % WATER; for ABSOLUTE BASOPHIL / ABSOLUTE EOSINOPHIL / ABSOLUTE LYMPHOCYTE / ABSOLUTE MONOCYTE / ABSOLUTE SEGMENTED NEUTROPHIL / BASOPHIL / EOSINOPHIL / ERYTHROCYTE COUNT / HEMATOCRIT / HEMOGLOBIN / LEUKOCYTE COUNT / LYMPHOCYTE / MEAN CORPUSCULAR HEMOGLOBIN / MEAN CORPUSCULAR HEMOGLOBIN CONCENTRATION / MEAN CORPUSCULAR VOLUME / MONOCYTE / NEUTROPHIL / NUCLEATED RED BLOOD CELLS / PLATELET COUNT: tissue Blood; for ALANINE AMINOTRANSFERASE / ALBUMIN / ALKALINE PHOSPHATASE / ASPARTATE AMINOTRANSFERASE / BLOOD UREA NITROGEN / CARBON DIOXIDE / CHLORIDE / CHOLESTEROL / CREATINE PHOSPHOKINASE / CREATININE / GLUCOSE / LACTATE DEHYDROGENASE / LIPASE / PHOSPHORUS / SODIUM / TOTAL BILIRUBIN / TOTAL PROTEIN / URIC ACID: tissue Plasma
[1] = 0 mg/kg, 72 h, dose level Control, time 3 day
[2] = 0 mg/kg, 120 h, dose level Control, time 5 day
[3] = 200 mg/kg, 72 h, dose level Low, time 3 day

## CC1(C)S[C@@H]2[C@H](NC(=O)[C@H](N)c3ccc(O)cc3)C(=O)N2[C@H]1C(=O)O [AMOXICILLIN]
[1]
  ABSOLUTE BASOPHIL: 0 CELLS/uL
  ABSOLUTE EOSINOPHIL: 25 CELLS/uL
  ABSOLUTE LYMPHOCYTE: 14357 CELLS/uL
  ABSOLUTE MONOCYTE: 456.33 CELLS/uL
  ABSOLUTE SEGMENTED NEUTROPHIL: 1461.67 CELLS/uL
  BASOPHIL: 0%
  EOSINOPHIL: 0.17%
  ERYTHROCYTE COUNT: 5.85 x10E6/uL
  HEMATOCRIT: 37.62%
  HEMOGLOBIN: 13.87 G/DL
  LEUKOCYTE COUNT: 16.3 x10E3/uL
  LYMPHOCYTE: 88%
  MEAN CORPUSCULAR HEMOGLOBIN: 23.68 pg
  MEAN CORPUSCULAR HEMOGLOBIN CONCENTRATION: 36.88 G/DL
  MEAN CORPUSCULAR VOLUME: 64.23 fL
  MONOCYTE: 2.83%
  NEUTROPHIL: 9%
  NUCLEATED RED BLOOD CELLS: 0 /100WBC
  PLATELET COUNT: 1125.33 x10E3/uL
  ALANINE AMINOTRANSFERASE: 49.67 u/L
  ALBUMIN: 4.23 G/DL
  ALKALINE PHOSPHATASE: 400.83 u/L
  ASPARTATE AMINOTRANSFERASE: 89.17 u/L
  BLOOD UREA NITROGEN: 16 mg/dL
  CARBON DIOXIDE: 31.83 mmol/L
  CHLORIDE: 99 MEQ/L
  CHOLESTEROL: 76 mg/dL
  CREATINE PHOSPHOKINASE: 777.67 u/L
  CREATININE: 0.22 mg/dL
  GLUCOSE: 158.33 mg/dL
  LACTATE DEHYDROGENASE: 186.17 u/L
  LIPASE: 9.33 u/L
  PHOSPHORUS: 12.95 mg/dL
  SODIUM: 141.53 MEQ/L
  TOTAL BILIRUBIN: 0.18 mg/dL
  TOTAL PROTEIN: 6.08 G/DL
  URIC ACID: 1.77 mg/dL
[2]
  ABSOLUTE BASOPHIL: 0 CELLS/uL
  ABSOLUTE EOSINOPHIL: 0 CELLS/uL
  ABSOLUTE LYMPHOCYTE: 8994.5 CELLS/uL
  ABSOLUTE MONOCYTE: 122.33 CELLS/uL
  ABSOLUTE SEGMENTED NEUTROPHIL: 666.5 CELLS/uL
  BASOPHIL: 0%
  EOSINOPHIL: 0%
  ERYTHROCYTE COUNT: 5.74 x10E6/uL
  HEMATOCRIT: 35.17%
  HEMOGLOBIN: 13.28 G/DL
  LEUKOCYTE COUNT: 9.78 x10E3/uL
  LYMPHOCYTE: 92.33%
  MEAN CORPUSCULAR HEMOGLOBIN: 23.15 pg
  MEAN CORPUSCULAR HEMOGLOBIN CONCENTRATION: 37.8 G/DL
  MEAN CORPUSCULAR VOLUME: 61.27 fL
  MONOCYTE: 1.33%
  NEUTROPHIL: 6.33%
  NUCLEATED RED BLOOD CELLS: 0 /100WBC
  PLATELET COUNT: 1117 x10E3/uL
  ALANINE AMINOTRANSFERASE: 47.83 u/L
  ALBUMIN: 4.33 G/DL
  ALKALINE PHOSPHATASE: 414.5 u/L
  ASPARTATE AMINOTRANSFERASE: 77.5 u/L
  BLOOD UREA NITROGEN: 17 mg/dL
  CARBON DIOXIDE: 32.33 mmol/L
  CHLORIDE: 99.33 MEQ/L
  CHOLESTEROL: 76.33 mg/dL
  CREATINE PHOSPHOKINASE: 363.67 u/L
  CREATININE: 0.25 mg/dL
  GLUCOSE: 173.5 mg/dL
  LACTATE DEHYDROGENASE: 129.33 u/L
  LIPASE: 9.17 u/L
  PHOSPHORUS: 11.52 mg/dL
  SODIUM: 143.85 MEQ/L
  TOTAL BILIRUBIN: 0.2 mg/dL
  TOTAL PROTEIN: 6.43 G/DL
  URIC ACID: 0.97 mg/dL
[3]
  ABSOLUTE BASOPHIL: 0 CELLS/uL
  ABSOLUTE EOSINOPHIL: 109.67 CELLS/uL
  ABSOLUTE LYMPHOCYTE: 14631 CELLS/uL
  ABSOLUTE MONOCYTE: 211.33 CELLS/uL
  ABSOLUTE SEGMENTED NEUTROPHIL: 914.67 CELLS/uL
  BASOPHIL: 0%
  EOSINOPHIL: 0.67%
  ERYTHROCYTE COUNT: 5.96 x10E6/uL
  HEMATOCRIT: 38.03%
  HEMOGLOBIN: 14 G/DL
  LEUKOCYTE COUNT: 15.87 x10E3/uL
  LYMPHOCYTE: 92.33%
  MEAN CORPUSCULAR HEMOGLOBIN: 23.53 pg
  MEAN CORPUSCULAR HEMOGLOBIN CONCENTRATION: 36.8 G/DL
  MEAN CORPUSCULAR VOLUME: 63.87 fL
  MONOCYTE: 1.33%
  NEUTROPHIL: 5.67%
  NUCLEATED RED BLOOD CELLS: 0 /100WBC
  PLATELET COUNT: 1509.33 x10E3/uL
  ALANINE AMINOTRANSFERASE: 49.33 u/L
  ALBUMIN: 4.4 G/DL
  ALKALINE PHOSPHATASE: 350 u/L
  ASPARTATE AMINOTRANSFERASE: 82.33 u/L
  BLOOD UREA NITROGEN: 15.33 mg/dL
  CARBON DIOXIDE: 31.33 mmol/L
  CHLORIDE: 99.33 MEQ/L
  CHOLESTEROL: 96.33 mg/dL
  CREATINE PHOSPHOKINASE: 449.67 u/L
  CREATININE: 0.21 mg/dL
  GLUCOSE: 146 mg/dL
  LACTATE DEHYDROGENASE: 163.67 u/L
  LIPASE: 10.33 u/L
  PHOSPHORUS: 11.9 mg/dL
  SODIUM: 142.1 MEQ/L
  TOTAL BILIRUBIN: 0.2 mg/dL
  TOTAL PROTEIN: 6.37 G/DL
  URIC ACID: 2.03 mg/dL
